Experimental data as given in patent US20180021361A1, “COMBINATION DRUG TREATMENT FOR HEPATITIS C INFECTION” (JANSSEN PHARMACEUTICALS, INC., priority 2016, published 2018).
“Also recorded” adds a separate entry of the source.

What was measured:
[1] = Phase-1 drug-drug interaction study, plasma PK in healthy volunteers
Procedure: A drug-drug interaction study (DDI) study is a study designed to investigate whether a drug alters the pharmacokinetics of another drug or drugs or their metabolites.
Compound (III) Subjects received 800 mg of Compound (III) once daily from Days 1-3, Days 11-13, and Days 21-23. PK blood samples for determination of Compound (III) and metabolite concentrations were collected in reference to the Day 3, Day 13, and Day 23 doses.
Simeprevir—Subjects received 150 mg of Simeprevir (SMV) once daily from Days 4-23. PK blood samples for determination of SMV concentrations were collected in reference to the Day 10, Day 13, Day 20, and Day 23 doses.
Odalasvir—Subjects received a loading dose of 150 mg on Day 14, and 50 mg of Odalasvir once daily from Days 15-23. PK blood samples for determination of Odalasvir concentrations were collected in reference to the Day 20 and Day 23 doses.
Compound (III)—Subjects received 800 mg of Compound (III) once daily from Days 1-3, Days 11-13 and Days 21-23. PK blood samples for determination of Compound (III) and metabolite concentrations were collected in reference to the Day 3, Day 13, and Day 23 doses.
Simeprevir—Subjects receive 150 mg of SMV once daily from Days 4-23. PK blood samples for determination of SMV concentrations were collected in reference to the Day 20 and Day 23 doses.
Odalasvir—Subjects receive a loading dose of 150 mg on Day 4, and 50 mg of Odalasvir once daily from Days 5-23. PK blood samples for determination of Odalasvir concentrations were collected in reference to the Day 10, Day 13, Day 20, and Day 23 doses.
A primary objective was to evaluate the effect of multiple oral doses of Odalasvir (alone), Simeprevir (alone), and Odalasvir and Simeprevir on the multiple oral dose PK of Compound (III) (and certain metabolites thereof, such as the major metabolites in systemic circulation) in healthy volunteers. Other objectives were to evaluate the safety and tolerability of multiple oral doses of Compound (III) when administered alone and in combination with single and multiple oral doses of Odalasvir and/or Simeprevir in healthy volunteers; to determine the potential effect of Compound of Compound (III) and/or Odalasvir on the steady-state PK of Simeprevir in healthy volunteers; to determine the potential effect of Compound of Compound (III) and/or Simeprevir on the steady state PK of Odalasvir in healthy volunteers.
Various other PK parameters were estimated including: […], t1/2, Tmax, Tlast, CL/F, Vz/F, and λz.
Odalasvir: 150 mg loading dose; 50 mg for the remainder of the study period.

P-gp = P-gp (Homo sapiens, UniProt P08183); details: efflux transporter; cited from earlier work
Sequence of P-gp (P08183 whole entry): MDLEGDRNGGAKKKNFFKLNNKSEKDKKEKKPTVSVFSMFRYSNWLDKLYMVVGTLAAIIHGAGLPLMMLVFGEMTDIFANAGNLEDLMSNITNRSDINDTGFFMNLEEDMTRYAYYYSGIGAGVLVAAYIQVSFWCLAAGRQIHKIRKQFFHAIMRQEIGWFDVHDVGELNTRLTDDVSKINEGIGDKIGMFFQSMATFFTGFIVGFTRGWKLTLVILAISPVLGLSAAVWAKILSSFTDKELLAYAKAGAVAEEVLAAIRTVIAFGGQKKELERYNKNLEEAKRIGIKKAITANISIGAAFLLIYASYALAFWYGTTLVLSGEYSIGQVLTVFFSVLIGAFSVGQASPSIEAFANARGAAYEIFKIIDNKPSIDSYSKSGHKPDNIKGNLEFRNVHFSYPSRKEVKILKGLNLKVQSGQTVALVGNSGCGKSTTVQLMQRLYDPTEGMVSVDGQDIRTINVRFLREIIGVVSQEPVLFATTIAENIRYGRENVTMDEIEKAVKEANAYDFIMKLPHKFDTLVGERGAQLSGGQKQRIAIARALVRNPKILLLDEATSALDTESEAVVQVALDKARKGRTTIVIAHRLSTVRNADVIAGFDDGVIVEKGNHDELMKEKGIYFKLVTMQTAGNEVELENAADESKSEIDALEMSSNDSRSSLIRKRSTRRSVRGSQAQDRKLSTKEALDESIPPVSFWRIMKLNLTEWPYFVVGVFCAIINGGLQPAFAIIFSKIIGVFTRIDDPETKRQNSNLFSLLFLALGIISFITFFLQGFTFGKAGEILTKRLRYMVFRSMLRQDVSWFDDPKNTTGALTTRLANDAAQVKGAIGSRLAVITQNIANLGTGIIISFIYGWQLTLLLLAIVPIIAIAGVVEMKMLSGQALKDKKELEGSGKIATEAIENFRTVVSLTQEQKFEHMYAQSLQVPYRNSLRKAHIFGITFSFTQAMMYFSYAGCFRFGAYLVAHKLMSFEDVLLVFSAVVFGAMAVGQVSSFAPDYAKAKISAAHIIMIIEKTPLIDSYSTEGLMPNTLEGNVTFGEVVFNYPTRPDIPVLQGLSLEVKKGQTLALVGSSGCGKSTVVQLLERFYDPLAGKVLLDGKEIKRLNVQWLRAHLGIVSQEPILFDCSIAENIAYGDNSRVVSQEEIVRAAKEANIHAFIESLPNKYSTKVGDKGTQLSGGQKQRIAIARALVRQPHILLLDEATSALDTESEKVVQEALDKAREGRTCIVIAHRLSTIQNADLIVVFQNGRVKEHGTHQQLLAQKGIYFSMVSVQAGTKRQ

BCRP = target: T1, BCRP (Homo sapiens, UniProt Q9UNQ0); details: efflux transporter; cited from earlier work
T1 sequence (Q9UNQ0 1-655): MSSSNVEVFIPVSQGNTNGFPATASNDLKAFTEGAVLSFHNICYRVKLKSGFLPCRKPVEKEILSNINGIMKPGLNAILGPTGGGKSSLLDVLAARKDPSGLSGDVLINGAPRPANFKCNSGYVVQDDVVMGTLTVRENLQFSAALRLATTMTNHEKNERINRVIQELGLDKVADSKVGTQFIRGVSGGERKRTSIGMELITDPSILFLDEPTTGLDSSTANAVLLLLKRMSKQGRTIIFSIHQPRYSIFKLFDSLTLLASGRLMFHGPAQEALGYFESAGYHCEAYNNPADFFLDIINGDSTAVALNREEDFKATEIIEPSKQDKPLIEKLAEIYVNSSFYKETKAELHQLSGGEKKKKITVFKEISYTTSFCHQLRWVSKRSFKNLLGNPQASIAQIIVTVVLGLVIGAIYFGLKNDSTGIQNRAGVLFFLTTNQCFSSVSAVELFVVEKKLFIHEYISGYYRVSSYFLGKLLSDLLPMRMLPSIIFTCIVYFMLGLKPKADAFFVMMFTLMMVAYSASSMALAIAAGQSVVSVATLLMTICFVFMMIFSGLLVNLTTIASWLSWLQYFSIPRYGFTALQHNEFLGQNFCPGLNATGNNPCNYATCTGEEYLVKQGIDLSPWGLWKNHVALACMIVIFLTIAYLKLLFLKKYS

OATP1B3 = target: T2, OATP1B3 (Homo sapiens, UniProt Q9NPD5); details: uptake transporter; cited from earlier work
T2 sequence (Q9NPD5 1-702): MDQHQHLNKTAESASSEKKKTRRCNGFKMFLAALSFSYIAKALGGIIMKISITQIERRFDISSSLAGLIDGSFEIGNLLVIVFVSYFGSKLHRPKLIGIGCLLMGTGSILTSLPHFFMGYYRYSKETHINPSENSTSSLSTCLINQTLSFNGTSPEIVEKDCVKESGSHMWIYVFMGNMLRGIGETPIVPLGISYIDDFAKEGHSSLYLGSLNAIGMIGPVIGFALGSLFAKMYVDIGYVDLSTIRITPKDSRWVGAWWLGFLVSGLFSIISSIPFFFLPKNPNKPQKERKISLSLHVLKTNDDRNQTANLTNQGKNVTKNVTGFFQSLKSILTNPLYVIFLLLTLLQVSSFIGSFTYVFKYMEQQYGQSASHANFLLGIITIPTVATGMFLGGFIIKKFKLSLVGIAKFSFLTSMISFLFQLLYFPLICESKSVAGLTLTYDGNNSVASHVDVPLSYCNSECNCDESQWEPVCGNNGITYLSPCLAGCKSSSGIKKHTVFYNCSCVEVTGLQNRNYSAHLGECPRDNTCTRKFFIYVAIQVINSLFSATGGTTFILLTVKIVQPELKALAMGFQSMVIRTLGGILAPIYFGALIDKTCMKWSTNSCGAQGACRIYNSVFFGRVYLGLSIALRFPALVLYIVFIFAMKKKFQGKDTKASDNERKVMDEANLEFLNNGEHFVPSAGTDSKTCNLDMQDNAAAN

Row | SMILES | exposure increase caused by Odalasvir ([1]; DDI study results) [×] | exposure increase caused by SMV ([1]; DDI study results) [×] | increase of exposure with the combination of the three drugs ([1]; both, human, in vivo) | bioavailability of Compound (III) when SMV and ODV are co-administered, compared to Compound (III) alone ([1]; human subjects) | in vitro inhibition of P-gp (P-gp) | in vitro inhibition of BCRP (BCRP) | in vitro inhibition of OATP1B3 (OATP1B3) | exposure increase, effect of the three Compounds ([1]; DDI study results) [×] | increase of exposure with the combination of the three drugs ([1]; human in vivo study) [times] | effect of Compound (III) on exposure / bioavailability ([1]; human subjects)
1 | CC(C)OC(=O)C(C)N[P@](=O)(OC[C@@]1(F)O[C@@H](n2ccc(=O)[nH]c2=O)[C@](C)(O)[C@@H]1O)Oc1ccccc1 (stereo in doubt) [Compound (III)] | 4 | 3 | 7-8 times | approximately 8 fold | no in vitro inhibition | no in vitro inhibition | no in vitro inhibition |  |  | 
2 | COC(=O)N[C@H](C(=O)N1[C@H](c2nc3cc(-c4cc5ccc4CCc4ccc(c(-c6ccc7[nH]c([C@@H]8C[C@@H]9CCCC[C@@H]9N8C(=O)[C@@H](NC(=O)OC)C(C)C)nc7c6)c4)CC5)ccc3[nH]2)C[C@@H]2CCCC[C@@H]21)C(C)C [ODV, methyl [(2S)-1-[(2S,3aS,7aS)-2-[6-[11-[2-[(2S,3aS,7aS)-1-[(2S)-2-[(methoxycarbonyl)amino]-3-methylbutanoyl]octahydro-1H-indol-2-yl]-1H-benzimidazol-6-yl]tricyclo[8.2.2.2^4,7]hexadeca-1(12),4,6,10,13,15-hexaen-5-yl]-1H-benzimidazol-2-yl]octahydro-1H-indol-1-yl]-3-methyl-1-oxobutan-2-yl]carbamate] |  | 1.6 |  |  | moderate inhibition | no inhibition | no inhibition | 1.5 | 1.5 | no apparent effect; also recorded: does not alter
